Experimental data: patent EP0465716A1, “Optically active thiazetoquino-line-3-carboxylic acid compound, method for preparation thereof, and a pharmaceutical composition comprising the same” (priority 1990, dated 1992)
Values after ≈ are worked out from the molar mass of the structure shown.

Tests used:
Enterobacter cloacae 963 = experiment: MIC, twofold agar dilution method (standard laboratory strain); format: cell-based; settings: Enterobacter cloacae 963, Gram -; 10^6 cfu/ml; 18 hrs at 37 °C
Procedure: (§1) Overnight cultures in Mueller-Hinton broth were suspended by buffered saline gelatin. One loopful of the bacterial suspension (10⁶ or 10⁸ colony-forming units/ml) was incubated onto the plates containing test compounds. The plates were incubated for 18 hrs at 37 °C. The MIC was defined by the lowest concentration of the drug that inhibited visible growth of bacteria.

[1] = test system: Escherichia coli NIHJ JC-2; experiment: as above; format: cell-based; settings: NIHJJC2; Escherichia coli NIHJ JC-2, Gram -; 10^6 cfu/ml; 18 hrs at 37 °C
Procedure: as §1

[2] = test system: Pseudomonas aeruginosa IFO 3445; experiment: as above; format: cell-based; settings: IFO3445; Pseudomonas aeruginosa IFO 3445, Gram -; 10^6 cfu/ml; 18 hrs at 37 °C
Procedure: as §1

[3] = test system: Serratia marcescens IAM 1184; experiment: as above; format: cell-based; settings: IAM1184; Serratia marcescens IAM 1184, Gram -; 10^6 cfu/ml; 18 hrs at 37 °C
Procedure: as §1

[4] = test system: Staphylococuss aureus FDA 209PJC-1; experiment: as above; format: cell-based; settings: Staphylococuss aureus FDA 209PJC-1, Gram +; 10^6 cfu/ml; 18 hrs at 37 °C
Procedure: as §1

[5] = test system: Klebsiella pneumoniae PCI-602; experiment: as above; format: cell-based; settings: PCI602; Klebsiella pneumoniae PCI-602, Gram -; 10^6 cfu/ml; 18 hrs at 37 °C; read-out: MIC
Procedure: as §1, with “Minimum inhibitory concentrations (MIC) of test compounds were determined by the twofold agar dilution method (Chemotherapy, 29(1), 76(1981)). Overnight” for “Overnight”

[6] = test system: Acinetobacter calcoaceticus HNR 904; experiment: MIC, twofold agar dilution method (clinically isolated strain); format: cell-based; settings: HNR904; Acinetobacter calcoaceticus HNR 904, Gram -; 10^6 cfu/ml; 18 hrs at 37 °C
Procedure: as §1

[7] = test system: Acinetobacter calcoaceticus HNR 916; experiment: as above; format: cell-based; settings: HNR916; Acinetobacter calcoaceticus HNR 916, Gram -; 10^6 cfu/ml; 18 hrs at 37 °C
Procedure: as §1

[8] = test system: Acinetobacter calcoaceticus HNR 939; experiment: as above; format: cell-based; settings: HNR939; Acinetobacter calcoaceticus HNR 939, Gram -; 10^6 cfu/ml; 18 hrs at 37 °C
Procedure: as §1

[9] = test system: Enterobacter cloacae HNR 1939; experiment: as above; format: cell-based; settings: HNR1939; Enterobacter cloacae HNR 1939, Gram -; 10^6 cfu/ml; 18 hrs at 37 °C
Procedure: as §1

[10] = test system: Enterobacter cloacae HNR 1941; experiment: as above; format: cell-based; settings: HNR1941; Enterobacter cloacae HNR 1941, Gram -; 10^6 cfu/ml; 18 hrs at 37 °C
Procedure: as §1

[11] = test system: Enterobacter cloacae HNR 1946; experiment: as above; format: cell-based; settings: HNR1946; Enterobacter cloacae HNR 1946, Gram -; 10^6 cfu/ml; 18 hrs at 37 °C
Procedure: as §1

[12] = test system: Enterococcus faecalis HPC 948; experiment: as above; format: cell-based; settings: HPC948; Enterococcus faecalis HPC 948, Gram +; 10^6 cfu/ml; 18 hrs at 37 °C
Procedure: as §1

[13] = test system: Enterococcus faecalis HPC 975; experiment: as above; format: cell-based; settings: HPC975; Enterococcus faecalis HPC 975, Gram +; 10^6 cfu/ml; 18 hrs at 37 °C
Procedure: as §1

[14] = test system: Enterococcus faecalis HPC 984; experiment: as above; format: cell-based; settings: HPC984; Enterococcus faecalis HPC 984, Gram +; 10^6 cfu/ml; 18 hrs at 37 °C
Procedure: as §1

[15] = test system: Klebsiella pneumoniae HNR 828; experiment: as above; format: cell-based; settings: HNR828; Klebsiella pneumoniae HNR 828, Gram -; 10^6 cfu/ml; 18 hrs at 37 °C
Procedure: as §1

[16] = test system: Klebsiella pneumoniae HNR 858; experiment: as above; format: cell-based; settings: HNR858; Klebsiella pneumoniae HNR 858, Gram -; 10^6 cfu/ml; 18 hrs at 37 °C
Procedure: as §1

[17] = test system: Klebsiella pneumoniae HNR 869; experiment: as above; format: cell-based; settings: HNR869; Klebsiella pneumoniae HNR 869, Gram -; 10^6 cfu/ml; 18 hrs at 37 °C
Procedure: as §1

[18] = test system: Pseudomonas aeruginosa HNR 1472; experiment: as above; format: cell-based; settings: HNR1472; Pseudomonas aeruginosa HNR 1472, Gram -; 10^6 cfu/ml; 18 hrs at 37 °C
Procedure: as §1

[19] = test system: Pseudomonas aeruginosa HNR 1489; experiment: as above; format: cell-based; settings: HNR1489; Pseudomonas aeruginosa HNR 1489, Gram -; 10^6 cfu/ml; 18 hrs at 37 °C
Procedure: as §1

[20] = test system: Pseudomonas aeruginosa HNR 1537; experiment: as above; format: cell-based; settings: HNR1537; Pseudomonas aeruginosa HNR 1537, Gram -; 10^6 cfu/ml; 18 hrs at 37 °C
Procedure: as §1

[21] = test system: Serratia marcescens HNR 1544; experiment: as above; format: cell-based; settings: HNR1544; Serratia marcescens HNR 1544, Gram -; 10^6 cfu/ml; 18 hrs at 37 °C
Procedure: as §1

[22] = test system: Serratia marcescens HNR 1767; experiment: as above; format: cell-based; settings: HNR1767; Serratia marcescens HNR 1767, Gram -; 10^6 cfu/ml; 18 hrs at 37 °C
Procedure: as §1

[23] = test system: Serratia marcescens HNR 1792; experiment: as above; format: cell-based; settings: HNR1792; Serratia marcescens HNR 1792, Gram -; 10^6 cfu/ml; 18 hrs at 37 °C
Procedure: as §1

[24] = test system: Staphylococcuss aureus HPC 292; experiment: as above; format: cell-based; settings: Staphylococcuss aureus HPC 292, Gram +; 10^6 cfu/ml; 18 hrs at 37 °C
Procedure: as §1

[25] = test system: Staphylococcuss aureus HPC 308; experiment: as above; format: cell-based; settings: Staphylococcuss aureus HPC 308, Gram +; 10^6 cfu/ml; 18 hrs at 37 °C
Procedure: as §1

[26] = test system: Staphylococcuss aureus HPC 527; experiment: as above; format: cell-based; settings: Staphylococcuss aureus HPC 527, Gram +; 10^6 cfu/ml; 18 hrs at 37 °C
Procedure: as §1

Male mice of ddY strain = experiment: Convulsion inducing activity in combination with fenbufen; settings: thirty minutes after fenbufen 100 mg/kg orally
Procedure: Male mice of ddY strain, 5 weeks old, were used. Fenbufen suspended in 0.5 % carboxymethylcellulose was administered orally at a dose of 100 mg/kg. After thirty minutes, test compounds suspended in 0.5 % carboxymethylcellulose were injected intraperitoneally (i.p.) at a dose of 100 mg/kg or 300 mg/kg.

MIC (Enterobacter cloacae 963) [mg/L]	MIC [1] [mg/L]	MIC [2] [mg/L]	MIC [3] [mg/L]	MIC [4] [mg/L]	MIC [5] [mg/L]	MIC [6] [mg/L]	MIC [7] [mg/L]	MIC [8] [mg/L]	MIC [9] [mg/L]	MIC [10] [mg/L]	MIC [11] [mg/L]	MIC [12] [mg/L]	MIC [13] [mg/L]	MIC [14] [mg/L]	MIC [15] [mg/L]	MIC [16] [mg/L]	MIC [17] [mg/L]	MIC [18] [mg/L]	MIC [19] [mg/L]	Compound	other results
0.05 (≈ 0.136 µM)	0.025 (≈ 0.068 µM)	0.1 (≈ 0.272 µM)	0.05 (≈ 0.136 µM)	0.05 (≈ 0.136 µM)	0.012 (≈ 0.0327 µM)	25 (≈ 68 µM)	0.1 (≈ 0.272 µM)	0.78 (≈ 2.12 µM)	0.1 (≈ 0.272 µM)	3.13 (≈ 8.52 µM)	0.2 (≈ 0.544 µM)	0.39 (≈ 1.06 µM)	3.13 (≈ 8.52 µM)	0.1 (≈ 0.272 µM)	1.56 (≈ 4.25 µM)	0.2 (≈ 0.544 µM)	0.78 (≈ 2.12 µM)	6.25 (≈ 17 µM)	0.1 (≈ 0.272 µM)	CC1Sc2c(C(=O)O)c(=O)c3cc(F)c(N4CC[C@@H](N)C4)c(F)c3n21 (single isomer, unassigned) [Example 26]	MIC [20]: 6.25 mg/L (≈ 17 µM); MIC [21]: 0.05 mg/L (≈ 0.136 µM); MIC [22]: 6.25 mg/L (≈ 17 µM); MIC [23]: 1.56 mg/L (≈ 4.25 µM); MIC [24]: 3.13 mg/L (≈ 8.52 µM); MIC [25]: 0.78 mg/L (≈ 2.12 µM); MIC [26]: 0.05 mg/L (≈ 0.136 µM)
0.05 (≈ 0.143 µM)	0.05 (≈ 0.143 µM)	0.1 (≈ 0.286 µM)	0.1 (≈ 0.286 µM)	0.05 (≈ 0.143 µM)	0.012 (≈ 0.0343 µM)	> 100	0.39 (≈ 1.12 µM)	6.25 (≈ 17.9 µM)	0.39 (≈ 1.12 µM)	> 100	0.78 (≈ 2.23 µM)	3.13 (≈ 8.96 µM)	> 100	0.39 (≈ 1.12 µM)	50 (≈ 143 µM)	0.39 (≈ 1.12 µM)	3.13 (≈ 8.96 µM)	50 (≈ 143 µM)	0.1 (≈ 0.286 µM)	CC1Sc2c(C(=O)O)c(=O)c3cc(F)c(N4CCC(N)C4)cc3n21 (centres unmarked) [Ref. Drug D, 7-(3-amino-1-pyrrolidinyl)-6-fluoro-1-methyl-4-oxo-1H,4H-[1,3]thiazeto[3,2-a]quinoline-3-carboxylic acid]	MIC [20]: 1.56 mg/L (≈ 4.46 µM); MIC [21]: 0.1 mg/L (≈ 0.286 µM); MIC [22]: > 100 mg/L; MIC [23]: 50 mg/L (≈ 143 µM); MIC [24]: > 100 mg/L; MIC [25]: 25 mg/L (≈ 71.6 µM); MIC [26]: 0.1 mg/L (≈ 0.286 µM); Number of convulsion induced / Number of animals (Male mice of ddY strain; 100 mg/kg (i.p.)): 0 / 6; Number of convulsion induced / Number of animals (Male mice of ddY strain; 300 mg/kg (i.p.)): 0 / 6
0.05 (≈ 0.143 µM)	0.025 (≈ 0.0716 µM)	0.2 (≈ 0.572 µM)	0.05 (≈ 0.143 µM)	0.1 (≈ 0.286 µM)	0.012 (≈ 0.0343 µM)	> 100	0.78 (≈ 2.23 µM)	6.25 (≈ 17.9 µM)	0.2 (≈ 0.572 µM)	12.5 (≈ 35.8 µM)	0.39 (≈ 1.12 µM)	6.25 (≈ 17.9 µM)	50 (≈ 143 µM)	0.78 (≈ 2.23 µM)	1.56 (≈ 4.46 µM)	0.2 (≈ 0.572 µM)	0.78 (≈ 2.23 µM)	6.25 (≈ 17.9 µM)	0.1 (≈ 0.286 µM)	CC1Sc2c(C(=O)O)c(=O)c3cc(F)c(N4CCNCC4)cc3n21 (centres unmarked) [Ref. Drug B, 6-fluoro-1-methyl-4-oxo-7-(1-piperazinyl)-1H,4H-[1,3]thiazeto[3,2-a]quinoline-3-carboxylic acid]	MIC [20]: 6.25 mg/L (≈ 17.9 µM); MIC [21]: 0.05 mg/L (≈ 0.143 µM); MIC [22]: 50 mg/L (≈ 143 µM); MIC [23]: 6.25 mg/L (≈ 17.9 µM); MIC [24]: 50 mg/L (≈ 143 µM); MIC [25]: 25 mg/L (≈ 71.6 µM); MIC [26]: 0.39 mg/L (≈ 1.12 µM)
